From publication PMC8238948, “Potent inhibitors of toxic alpha-synuclein identified via cellular time-resolved FRET biosensors” (NPJ Parkinson's Disease, 2021)
Entries after “also recorded” stand apart in the source; their conditions may differ. Counter-ions that a name gives are not always drawn.

Key:
[1] = target: T1, WT αSN oligomer (inter-protomeric) FRET biosensor in HEK293 cells (Homo sapiens, UniProt P37840); assay: FLT dose response, WT oligomer (inter-protomeric) FRET biosensor; format: cell-based; details: 1 nM to 50 μM
T1 construct: In addition to full-length αSN fusion constructs, we observe both C-terminally and N-terminally truncated αSN species; expressed in transfected cells; host or cells: HEK293
Procedure: Hits from the pilot HTS of the LOPAC library were selected and dispensed into 384-well plates to verify reproducible and specific FLT trends using the WT and A53T oligomer (inter-protomeric) FRET biosensors. Figure 6 presents a subset of these dose-response curves for hit compounds RO, BAY, SB206553, and DEM, along with known control compound EGCG. […] Assay quality was determined by Z′ (Eq. 2) where a Z′ > 0.5 indicates good assay quality. Using EGCG as control compound and the hit DEM, we calculated Z′ value of 0.76 and 0.66, respectively, indicating excellent assay quality.
Fig. 6 FRET dose response of pilot HTS hits. A subset of hits were evaluated using both WT (a) and A53T (b) oligomer biosensor to verify both increased FLT (disrupting αSN–αSN interactions) and decreased FLT (tighter aggregation or remodeled oligomers).
Compounds were tested in a FLT dose-response assay. The compound was dissolved to 10 mM in DMSO, then serially diluted in 96-well mother plates. Each hit was re-screened for FLT dose response across eight concentrations (1 nM to 50 μM). Compounds (0.5 μL) were transferred from mother plates into assay plates using a Mosquito HV liquid handler (TTP Labtech Ltd, UK). The preparations for αSN FRET biosensors were carried out as above.

[2] = target: T2, intra-protomeric αSN biosensor (GFP-αSN-RFP) in HEK293 cells (Homo sapiens, UniProt P37840); assay: FRET response on intra-protomeric αSN biosensor; format: cell-based; details: 10 µM
T2 construct: In addition to full-length αSN fusion constructs, we observe both C-terminally and N-terminally truncated αSN species; expressed in transfected cells; host or cells: HEK293
Procedure: Hits were also evaluated with the intra-protomeric αSN and control, non-specific biosensors. […] The compounds RO, BAY, and DEM as well as the control EGCG each reduced FRET, indicating either reduction in oligomerization or expanded oligomer conformation. Tests of these compounds in two control biosensor systems (GFP/RFP at 1:8 and GFP-linker32-RFP; see Supplementary Fig. 13a, b, respectively) show no significant FRET change.
Fig. 7 FRET response to pilot HTS hits on intra-protomeric αSN biosensor. […] With both donor and acceptor XFP fused to one construct, this biosensor is sensitive to both oligomer formation as well as conformation. […] Experiments were performed with n = 3; *p < 0.05, **p < 0.01, ***p < 0.001, ns indicates no significant difference as determined by Student’s t test.

[3] = test system: differentiated SH-SY5Y cells treated with sonicated human αSN PFF; assay: Differentiated SH-SY5Y cell model of αSN PFF pathology (pS129 immunoblot); format: cell-based; details: 1 μM compound, 200 nM human PFF, 48 h; for total pS129 signal (words): relative to DMSO
Procedure: SH-SY5Y cells were differentiated using reduced serum (3%) media supplemented with 10 μM retinoic acid for 3 days and then changed to serum-free media supplemented with 10 ng/mL brain-derived neurotrophic factor for the remainder of the experiment. Stock αSN PFFs were diluted and sonicated as described previously. SH-SY5Y cultures were then treated with 200 nM PFF and PBS, DMSO, 1 μM drug compound (RO, BAY, or DEM), or 50 μM Baicalin. After 48 h, SH-SY5Y were washed with PBS and harvested in cold lysis buffer with protease and phosphatase inhibitors, as previously described. Approximately 15 μg of total protein was loaded onto a 4–20% Criterion TGX midi gel and probed using Syn1 (BD Biosciences, #610787; 1° 1:5000; 2° 1:10K) and pS^129 aSyn (abcam, ab59264; 1° 1:1000; 2° 1:5000) and a-tubulin (abcam, ab4074; 1° 1:1000; 2° 1:10K) page 19: Supplemental Figure 18. […] Differentiated SH-SY5Y cells were treated with PBS, vehicle (DMSO) or compounds with and without 200nM sonicated human αSN PFFs. […] These will be removed in subsequent densitometry analysis. (b) Replicates of PFF +/- compound treatment were ran for immunoblot analysis of pS129 immunoreactivity. (c) Densitometry analysis was performed using ImageLab from BioRad. Total pS129 signal (excluding the non- specific bands) was normalized to tubulin loading control. […] Quantification is normalized per lane to highlight change in the ratio of different species. Note, oligomers quantification is plotted relative to the right-y- axis. All statistical comparisons were to DMSO treatment using two-tailed t-test with * p<0.05; ** p<0.01; *** p<0.005.

αSN oligomers = target: T3, αSN oligomers (Homo sapiens, UniProt P37840); assay: ThT content (β-sheet) of αSN oligomers after oligomerization assay; format: biochemical; details: 70 μM compound (1:5 compound:monomer), 12 h oligomerization; vs DMSO
T3 construct: made in house; host or cells: Escherichia coli BL21(DE3), T7-7 plasmid
Procedure: To explore the presence of β-sheet content in these oligomers, an aliquot was removed prior to cross-linking, diluted into 100 μM ThT working solution, and ThT fluorescence was monitored to detect the presence of β-sheet. Supplementary Fig. 22 presents each sample ThT content normalized to the PFF signal. We observed an increased ThT content in the αSN oligomers (αS-O) that was not affected by DMSO (vehicle) treatment.
A 10-μL aliquot from each sample was taken and diluted with 290 μL ThT working solution (100 μM ThT in PBS) and dispensed into 3 wells of a 384-well, black opaque plate. Additional samples of PBS, αSN(m), and αSN PFF were used as controls. Plates were incubated at ambient temperature for 10 min and then fluorescence read at 450ex/490em on a Spectromax-i3x (Molecular Devices).
Supplemental Figure 22. Characterization of β-sheet content in αSN oligomers due to hit compound
After the 12-hour oligomerization assay aliquots of each sample were
removed and diluted in 100μM ThT and fluorescence read in triplicate (450ex/490em) in 384-well plates. The
ThT signal was normalized to a signal from previously frozen αSN PFF aliquots. After completion of the
PFF, green bar) and the ThT signal was not affected by DMSO (red bar). Oligomerization in the presence of
control compounds, EGCG and Baicalin, at 70μM (a sub-stoichiometric,1:5 compound: monomer ratio)
Our hit compounds RO, DEM, and BAY had differential effects with
both DEM and BAY resulting in increased ThT content and RO not producing a significant change relative to
(1 picture or pasted object on this page, not shown here)

`CN(C)[C@@H]1C(O)=C(C(N)=O)C(=O)[C@@]2(O)C(O)=C3C(=O)c4c(O)ccc(Cl)c4[C@@H](O)[C@H]3C[C@@H]12` [DEM, Demeclocycline HCl] was tested, and the “FLT trend in dose response” value [1] was “reduced FLT”, the “change in intra-protomeric FRET” value [2] was “reduced FRET” and the “HMW pS129 assemblies” value [3] was “increase HMW assemblies”. The “LMW oligomer pS129 fraction” value [3] was “significantly reduced”, the “monomeric pS129 fraction” value [3] was “significant reduction” and the “total pS129 signal (words)” value [3] was “non-significant change”. For the same compound, the “ThT signal of αSN oligomers” value (αSN oligomers) was “increased the ThT signal”.

`Nc1ccc(-c2nc3ccc(-c4nc5ccc(N)cc5[nH]4)cc3[nH]2)cc1` [RO, Ro 90–7501] was tested, and the “FLT trend in dose response” value [1] was “reduced FLT”, the “change in intra-protomeric FRET” value [2] was “reduced FRET” and the “HMW pS129 assemblies” value [3] was “increase HMW assemblies”. The “LMW oligomer pS129 fraction” value [3] was “significantly reduced”, the “monomeric pS129 fraction” value [3] was “significant reduction” and the “total pS129 signal (words)” value [3] was “significant reduction; also recorded: significant decrease”. For the same compound, the “ThT signal of αSN oligomers” value (αSN oligomers) was “no effect”.

With `COC(=O)C1=C(C)NC(C)=C([N+](=O)[O-])C1c1ccccc1C(F)(F)F` (racemic) [BAY, (±)-Bay K 8644] the “FLT trend in dose response” value [1] was “reduced FLT”, the “change in intra-protomeric FRET” value [2] was “reduced FRET” and the “HMW pS129 assemblies” value [3] was “increase HMW assemblies”. The “LMW oligomer pS129 fraction” value [3] was “not BAY, reduce oligomers”, the “monomeric pS129 fraction” value [3] was “significant reduction” and the “total pS129 signal (words)” value [3] was “significant increase”. For the same compound, the “total pS129 signal (words)” value ([3]; listed as Bay) was “increased pS129 signal” and the “ThT signal of αSN oligomers” value (αSN oligomers) was “increased the ThT signal”.
